target: T1, recombinant human ASK1 (Homo sapiens, UniProt Q99683); assay: ASK1 enzymatic inhibition in vitro by HTRF; assay type: biochemical; details: HTRF method, single concentration 100 nM
T1 construct: purchased Invitrogen PR7349B
T1 sequence (Q99683 1-1374): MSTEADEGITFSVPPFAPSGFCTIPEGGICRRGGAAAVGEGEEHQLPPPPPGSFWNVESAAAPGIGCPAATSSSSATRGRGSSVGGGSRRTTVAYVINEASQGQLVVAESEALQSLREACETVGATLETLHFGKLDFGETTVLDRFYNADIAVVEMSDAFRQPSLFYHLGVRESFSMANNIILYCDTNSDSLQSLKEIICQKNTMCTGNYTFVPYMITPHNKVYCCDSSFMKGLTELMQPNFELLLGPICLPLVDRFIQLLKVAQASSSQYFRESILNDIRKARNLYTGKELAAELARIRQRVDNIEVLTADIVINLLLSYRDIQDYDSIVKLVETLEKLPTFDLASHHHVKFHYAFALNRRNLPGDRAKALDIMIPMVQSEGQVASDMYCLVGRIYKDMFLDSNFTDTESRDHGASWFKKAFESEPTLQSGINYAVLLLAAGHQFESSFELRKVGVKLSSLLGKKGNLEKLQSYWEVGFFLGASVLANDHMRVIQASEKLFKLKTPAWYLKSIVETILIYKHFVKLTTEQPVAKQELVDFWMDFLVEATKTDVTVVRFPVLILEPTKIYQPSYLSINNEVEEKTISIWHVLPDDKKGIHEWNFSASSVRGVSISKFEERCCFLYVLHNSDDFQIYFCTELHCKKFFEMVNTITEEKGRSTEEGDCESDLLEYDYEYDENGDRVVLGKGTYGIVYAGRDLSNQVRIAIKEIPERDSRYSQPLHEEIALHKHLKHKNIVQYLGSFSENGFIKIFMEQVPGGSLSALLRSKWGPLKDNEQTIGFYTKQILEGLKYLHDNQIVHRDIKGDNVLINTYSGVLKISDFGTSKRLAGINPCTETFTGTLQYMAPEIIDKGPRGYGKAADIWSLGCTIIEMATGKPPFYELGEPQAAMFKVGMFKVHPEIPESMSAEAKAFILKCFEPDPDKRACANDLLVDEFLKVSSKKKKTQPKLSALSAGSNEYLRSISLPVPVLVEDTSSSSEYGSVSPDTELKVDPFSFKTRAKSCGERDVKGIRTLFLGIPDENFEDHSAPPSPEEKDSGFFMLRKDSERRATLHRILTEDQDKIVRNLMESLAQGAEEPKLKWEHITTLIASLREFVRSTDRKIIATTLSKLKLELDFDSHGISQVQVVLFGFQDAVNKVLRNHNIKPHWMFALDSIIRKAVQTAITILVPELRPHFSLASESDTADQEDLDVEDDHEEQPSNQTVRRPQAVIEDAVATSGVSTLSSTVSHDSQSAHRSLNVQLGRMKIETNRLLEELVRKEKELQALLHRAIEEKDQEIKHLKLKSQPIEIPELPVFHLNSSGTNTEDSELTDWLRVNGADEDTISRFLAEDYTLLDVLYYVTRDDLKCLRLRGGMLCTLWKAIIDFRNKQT
Text: In this detection, homogeneous time resolved fluorescence (HTRF) was used to evaluate the inhibitory level of the compound on the enzyme activity of recombinant human ASK1 in an in vitro reaction system.
The basic principle of the detection of enzymatic activity in vitro: a specific substrate labeled with biotin at the end is phosphorylated under the action of a kinase, and the reaction product is mixed with the EU3+-Cryptate-labeled antibody that recognizes the phosphorylation site and XL665-labeled streptavidin. When the two fluorescent molecules are bound to the substrate at the same time, Eu will produce […] fluorescence under the stimulation of external excitation light (320 nm), and meanwhile, XL665 will be excited by energy transfer to produce 665 nm fluorescence. The phosphorylation of the substrate is evaluated by comparing the changes of fluorescence at two wavelengths (620 nm and 665 nm). […] The basic detection principle is known in the prior art (Cisbio, Nature Method 2006, June 23; DOI:10.1038/NMETH883).
Human recombinant ASK1 (MAP3K5) kinase, 2× kinase reaction buffer, and ATP (10 mM) were purchased from Invitrogen (Cat. No.: PR7349B), and HTRF detection kit, HTRF KinEASE STK discovery kit, was purchased from Cisbio (Cat. No.: 62ST0PEB).
The experimental process was carried out in accordance with the procedures required by the detection reagent manual (https://www.cisbio.com/sites/default/files/ressources/cisbio_ddpi_62ST0PEB.pdf). The details are as follows:
(1) Experimental preparation: the kinase reaction buffer (working solution) is prepared as required and used to dilute the test compound into different concentration gradients (the maximum concentration of the compound is 4 μM).
(2) 10 μL of the enzymatic reaction system (including 2.5 μL of test compound, 5 μL of kinase reaction buffer and 2.5 μL of ATP solution (provided in the kit)) is mixed well and reacted at room temperature for 1 h. The enzymatic reaction is carried out in a 96-well microplate.
(3) EU3+-Cryptate-labeled antibody and XL665-labeled streptavidin are diluted with reaction termination buffer in an appropriate ratio, and 5 μL of each of two diluted detection solutions is added to each reaction well and reacted at room temperature for 2 h.
(4) The reaction is set up with a control reaction at the same time, including a positive control without test compound and a negative control without ASK1 kinase. All detections are carried out in duplicate.
(5) After the reaction, a fluorescence detector (TecanSPARK 10M) is used to detect the fluorescence signal of each well, wherein, the excitation wavelength is 320 nm, and the detected emission wavelengths are 620 nm and 665 nm, respectively.
(6) The 665/620 ratio of each well is calculated respectively, and the 665/620 ratio of the negative control well is subtracted from that of the positive control well to get the basic level of phosphorylation of the substrate. The formula for calculating the enzymatic inhibition rate of the test compound: inhibition rate (%)=1-(ratio of detection wells-ratio of negative wells)/basic level of phosphorylation of the substrate. The phosphorylation inhibition rates are calculated for the test compounds with different concentration gradients, and then the 50% enzymatic inhibiting concentration (IC50) is calculated by using the IC50 calculator. The summary data of the representative compounds of the present invention are as follows (see Table 2).

| SMILES | Inhibition Rate % [%] |
| --- | --- |
| Cc1cc(F)c(C(=O)Nc2cccc(-c3nncn3[C@@H](C)C(F)(F)F)n2)cc1NC(=O)C1CC1 [Compound I-3, (5)-5-(cyclopropylformamido)-2-fluoro-4-methyl-N-(6-(4-(1,1,1-trifluoropropyl-2-yl)-4H-1,2,4-triazol-3-yl)pyridin-2-yl)benzamide] | 51 |
| COC[C@@H](C)n1cnnc1-c1cccc(NC(=O)c2cc(NC(=O)C3CC3)c(C)cc2F)n1 [Compound I-6] | 13 |
| Cc1cc(F)c(C(=O)Nc2csc(-c3nncn3[C@@H](C)C(F)(F)F)n2)cc1NC(=O)C1CC1 [Compound I-8] | 24 |
| C[C@H](n1cnnc1-c1cccc(NC(=O)c2cc(NC(=O)C3CC3)c(Cl)cc2F)n1)C(F)(F)F [Compound I-9, (S)-4-chloro-5-(cyclopropylformamido)-2-fluoro-N-(6-(4-(1,1,1-trifluoropropyl-2-yl)-4H-1,2,4-triazol-3-yl)pyridin-2-yl)benzamide] | 33 |
| C[C@H](n1cnnc1-c1cccc(NC(=O)c2cc(NC(=O)C3CC3)ccn2)n1)C(F)(F)F [Compound I-10, (S)-4-(cyclopropylformamido)-N-(6-(4-(1,1,1-trifluoropropyl-2-yl)-4H-1,2,4-triazol-3-yl)pyridin-2-yl)pyridin-2-formamide] | 44 |
| C[C@H](n1cnnc1-c1cccc(NC(=O)c2cc(NC(=O)C3CC3)c(F)cn2)n1)C(F)(F)F [Compound I-11, (S)-4-(cyclopropylformamido)-5-fluoro-N-(6-(4-(1,1,1-trifluoropropyl-2-yl)-4H-1,2,4-triazol-3-yl)pyridin-2-yl)pyridin-2-formamide] | 27 |
| Cc1cc(F)c(C(=O)Nc2cccc(-c3nncn3C(C)C)n2)cc1NC(=O)C1CC1c1ccc(F)cc1 (stereo not drawn) [Compound I-13, 2-fluoro-5-(2-(4-fluorophenyl)cyclopropyl-1-formamido)-N-(6-(4-isopropyl-4H-1,2,4-triazol-3-yl)pyridin-2-yl)-4-methylbenzamide] | 18 |
| Cc1cc(F)c(C(=O)Nc2cccc(-c3nncn3C(C)C)n2)cc1NC(=O)C1(F)CC1 [Compound I-16, 2-fluoro-N-(6-(4-isopropyl-4H-1,2,4-triazol-3-yl)pyridin-2-yl)-4-methyl-5-(1-(fluoro)cyclopropyl-1-formamido)benzamide] | 21 |
| Cc1cc(F)c(C(=O)Nc2cccc(-c3nncn3C(C)C)n2)cc1NC(=O)[C@H]1C[C@H]1F [Compound I-17, 2-fluoro-5-((1R,2R)-2-fluorocyclopropyl-1-formamido)-N-(6-(4-isopropyl-4H-1,2,4-triazol-3-yl)pyridin-2-yl)-4-methylbenzamide] | 15 |
| Cc1cc(F)c(C(=O)Nc2cccc(-c3nncn3C(C)C)n2)cc1NC(=O)[C@H]1C[C@@H]1F [Compound I-18, 2-fluoro-5-((1R,2S)-2-fluorocyclopropyl-1-formamido)-N-(6-(4-isopropyl-4H-1,2,4-triazol-3-yl)pyridin-2-yl)-4-methylbenzamide] | 34 |
| Cc1cc(F)c(C(=O)Nc2cccc(-c3nncn3[C@@H](C)C(F)(F)F)n2)cc1NC(=O)C1CCCC1 [Compound I-19, (S)-5-(cyclopentylformamido)-2-fluoro-4-methyl-N-(6-(4-(1,1,1-trifluoropropyl-2-yl)-4H-1,2,4-triazol-3-yl)pyridin-2-yl)benzamide] | 52 |
| Cc1cc(F)c(C(=O)Nc2cccc(-c3nncn3[C@@H](C)C(F)(F)F)n2)cc1NC(=O)C1CCCCCC1 [Compound I-20, (S)-5-(cycloheptylformamido)-2-fluoro-4-methyl-N-(6-(4-(1,1,1-trifluoropropyl-2-yl)-4H-1,2,4-triazol-3-yl)pyridin-2-yl)benzamide] | 16 |

same assay, conditions: HTRF method, single concentration 100 nM; read-out: Inhibition Rate %

| SMILES | inhibition at 0.1 µM [%] |
| --- | --- |
| Cc1cc(F)c(C(=O)Nc2cccc(-c3nncn3C(C)C)n2)cc1NC(=O)C1CC1 [Compound I-1, 5-(cyclopropylformamido)-2-fluoro-4-methyl-N-(6-(4-isopropyl-4H-1,2,4-triazol-3-yl)pyridin-2-yl)benzamide] | 54 |
| Cc1cc(F)c(C(=O)Nc2cccc(-c3nncn3CC(F)(F)F)n2)cc1NC(=O)C1CC1 [Compound I-4, 5-(cyclopropylformamido)-2-fluoro-4-methyl-N-(6-(4-(2,2,2-trifluoroethyl)-4H-1,2,4-triazol-3-yl)pyridin-2-yl)benzamide] | 32 |
| Cc1cc(F)c(C(=O)Nc2cccc(-c3nncn3C(C)C)n2)cc1NC(=O)C1CCC1 [Compound I-14, 5-(cyclobutylformamido)-2-fluoro-N-(6-(4-isopropyl-4H-1,2,4-triazol-3-yl)pyridin-2-yl)-4-methylbenzamide] | 42 |

— patent US20210139454A1, “FORMAMIDE COMPOUND, PREPARATION METHOD THEREFOR AND APPLICATION THEREOF” (SHENZHEN CHIPSCREEN BIOSCIENCES CO., LTD., priority 2018, published 2021)
